Reference: patent US20120029187A1, “HALOALKYLSULFONANILIDE DERIVATIVE” (Nissan Chemical Industries, Ltd., priority 2009, published 2012)

What was measured:
Assay type in all cases: in vivo
[1] = test system: barnyardgrass; assay: Comparative Example 2: herbicidal effects on barnyardgrass during the vegetation period under submerged conditions; settings: applied to water surface at the 2- or 2.5-leaf stage, three weeks after application
Procedure: Comparative Example 2 Test on the Herbicidal Effects on Barnyardgrass During the Vegetation Period Under Submerged Conditions Alluvial soil was put in 1/30000-are styrol cups and admixed with water so that it was submerged at a depth of 4 cm. In each cup, seeds of barnyardgrass were sown, and the cups were placed in a greenhouse at 25 to 30° C. to grow the plants. When the barnyardgrass reached the 2- or 2.5-leaf stage, emulsifiable concentrates containing compounds of the present invention and the comparative compounds formulated in accordance with Formulation Example 2 were applied to the water surfaces at predetermined doses after diluted with water. Three weeks after the application, the herbicidal effects were determined on the same evaluation scale as in Test Example 1. The symbol A in the table is the same as defined above.

[2] = test system: giant foxtail; assay: Test Example 3: herbicidal effects in soil treatment; settings: dose 6.3 g/a
Outline: (§1)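 Seeds were sown in sterilized diluvial soil and covered with about 1.5 cm of soil. Compounds, formulated as emulsifiable concentrates and diluted with water, were sprayed evenly over the soil surface at set doses in g/a. Herbicidal effect was scored on a rating scale three weeks later.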

[3] = test system: wild oat; assay: as above; settings: dose 6.3 g/a
Outline: as §1

[4] = test system: large crabgrass; assay: as above; settings: dose 6.3 g/a
Outline: as §1

[5] = test system: velvetleaf; assay: as above; settings: dose 6.3 g/a
Outline: as §1

[6] = test system: water foxtail; assay: as above; settings: dose 6.3 g/a
Outline: as §1

[7] = test system: common lambsquater; assay: as above; settings: dose 6.3 g/a
Outline: as §1

[8] = test system: posumbu knotweed; assay: as above; settings: dose 6.3 g/a
Outline: as §1

[9] = test system: common chickweed; assay: as above; settings: dose 6.3 g/a
Outline: as §1

[10] = test system: common ragweed; assay: as above; settings: dose 6.3 g/a
Outline: as §1

[11] = test system: barnyardgrass; assay: as above; settings: dose 6.3 g/a
Outline: as §1

[12] = test system: bulrush; assay: Test Example 1: herbicidal effects in preemergence treatment under submerged conditions; settings: dose 2.52 g/a
Outline: (§2)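 Alluvial soil flooded to 4 cm depth; barnyardgrass, bulrush and ducksalad sown and 2.5-leaf rice seedlings transplanted. Same day, water-diluted emulsifiable concentrates applied to the water surface at set doses (g/a). Kept at 25–30 °C in greenhouse; effects scored 0–5 by mortality after three weeks.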

[13] = test system: ducksalad; assay: as above; settings: dose 2.52 g/a
Outline: as §2

[14] = test system: barnyardgrass; assay: as above; settings: dose 2.52 g/a
Outline: as §2

[15] = test system: transplanted rice; assay: Test Example 1: preemergence treatment under submerged conditions, effect on crop; settings: dose 2.52 g/a
Outline: as §2

[16] = test system: giant foxtail; assay: Test Example 4: herbicidal effect in foliage treatment; settings: dose 6.3 g/a, three weeks after application
Outline: (§3)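 14-day greenhouse-grown plants (25–30° C) sprayed on foliage with diluted EC; dose as g/a; effect graded after 3 weeks.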

[17] = test system: wild oat; assay: as above; settings: dose 6.3 g/a, three weeks after application
Outline: as §3

[18] = test system: beadstraw; assay: as above; settings: dose 6.3 g/a, three weeks after application
Outline: as §3

[19] = test system: large crabgrass; assay: as above; settings: dose 6.3 g/a, three weeks after application
Outline: as §3

[20] = test system: Italian ryegrass; assay: as above; settings: dose 6.3 g/a, three weeks after application
Outline: as §3

[21] = test system: velvetleaf; assay: as above; settings: dose 6.3 g/a, three weeks after application
Outline: as §3

[22] = test system: water foxtail; assay: as above; settings: dose 6.3 g/a, three weeks after application
Outline: as §3

[23] = test system: common lambsquater; assay: as above; settings: dose 6.3 g/a, three weeks after application
Outline: as §3

[24] = test system: posumbu knotweed; assay: as above; settings: dose 6.3 g/a, three weeks after application
Outline: as §3

[25] = test system: common chickweed; assay: as above; settings: dose 6.3 g/a, three weeks after application
Outline: as §3

[26] = test system: common ragweed; assay: as above; settings: dose 6.3 g/a, three weeks after application
Outline: as §3

[27] = test system: redroot pigweed; assay: as above; settings: dose 6.3 g/a, three weeks after application
Outline: as §3

[28] = test system: barnyardgrass; assay: as above; settings: dose 6.3 g/a, three weeks after application
Outline: as §3

`CC(C)COC(=O)N(c1ccccc1CN1COCCC1=O)S(=O)(=O)C(F)(F)F` [II-3] was tested. Which “herbicidal effect, A (barnyardgrass)” value ([1]; dose 0.16 g/a) did it give?
Its value is 0 (mortality of less than 5% (almost ineffective)).

What about the “herbicidal effect, A (barnyardgrass)” value ([1]; dose 0.64 g/a) of the same compound?
The value was 3 (mortality of at least 40% and less than 70%).

And the “herbicidal effect, A (barnyardgrass)” value ([1]; dose 2.52 g/a)?
The value was 5 (mortality of 90% or above (nearly complete death)).

What about the “E: giant foxtail, herbicidal effect (evaluation scale 0-5)” value [2] of the same compound?
The value was 3 (mortality of at least 40% and less than 70%).

And the “F: wild oat, herbicidal effect (evaluation scale 0-5)” value [3]?
The value was 0 (mortality of less than 5% (almost ineffective)).

What about the “D: large crabgrass, herbicidal effect (evaluation scale 0-5)” value [4] of the same compound?
Its value is 5 (mortality of 90% or above (nearly complete death)).

And the “I: velvetleaf, herbicidal effect (evaluation scale 0-5)” value [5]?
Its value is 4 (mortality of at least 70% and less than 90%).

What about the “G: water foxtail, herbicidal effect (evaluation scale 0-5)” value [6] of the same compound?
The value was 5 (mortality of 90% or above (nearly complete death)).

And the “L: common lambsquater, herbicidal effect (evaluation scale 0-5)” value [7]?
The value was 1 (mortality of at least 5% and less than 20%).

What about the “M: posumbu knotweed, herbicidal effect (evaluation scale 0-5)” value [8] of the same compound?
Its value is 1 (mortality of at least 5% and less than 20%).

What about the “N: common chickweed, herbicidal effect (evaluation scale 0-5)” value [9] of the same compound?
Its value is 3 (mortality of at least 40% and less than 70%).

What about the “J: common ragweed, herbicidal effect (evaluation scale 0-5)” value [10] of the same compound?
The value was 3 (mortality of at least 40% and less than 70%).

What about the “A: barnyardgrass, herbicidal effect (evaluation scale 0-5)” value [11] of the same compound?
Its value is 5 (mortality of 90% or above (nearly complete death)).

What about the “B: bulrush, herbicidal effect (evaluation scale 0-5)” value [12] of the same compound?
Its value is 5 (mortality of 90% or above (nearly complete death)).

And the “C: ducksalad, herbicidal effect (evaluation scale 0-5)” value [13]?
Its value is 5 (mortality of 90% or above (nearly complete death)).

And the “A: barnyardgrass, herbicidal effect (evaluation scale 0-5)” value [14]?
The value was 5 (mortality of 90% or above (nearly complete death)).

And the “a: transplanted rice, effect on crop (evaluation scale 0-5)” value [15]?
The value was 0 (mortality of less than 5% (almost ineffective)).

And the “E: giant foxtail, herbicidal effect” value [16]?
The value was 5 (mortality of 90% or above (nearly complete death)).

What about the “F: wild oat, herbicidal effect” value [17] of the same compound?
Its value is 0 (mortality of less than 5% (almost ineffective)).

And the “O: beadstraw, herbicidal effect” value [18]?
Its value is 3 (mortality of at least 40% and less than 70%).

And the “D: large crabgrass, herbicidal effect” value [19]?
Its value is 5 (mortality of 90% or above (nearly complete death)).

And the “H: Italian ryegrass, herbicidal effect” value [20]?
Its value is 3 (mortality of at least 40% and less than 70%).

What about the “I: velvetleaf, herbicidal effect” value [21] of the same compound?
Its value is 5 (mortality of 90% or above (nearly complete death)).

And the “G: water foxtail, herbicidal effect” value [22]?
Its value is 5 (mortality of 90% or above (nearly complete death)).

What about the “L: common lambsquater, herbicidal effect” value [23] of the same compound?
Its value is 4 (mortality of at least 70% and less than 90%).

What about the “M: posumbu knotweed, herbicidal effect” value [24] of the same compound?
The value was 0 (mortality of less than 5% (almost ineffective)).

And the “N: common chickweed, herbicidal effect” value [25]?
Its value is 3 (mortality of at least 40% and less than 70%).

And the “J: common ragweed, herbicidal effect” value [26]?
Its value is 2 (mortality of at least 20% and less than 40%).

What about the “K: redroot pigweed, herbicidal effect” value [27] of the same compound?
The value was 0 (mortality of less than 5% (almost ineffective)).

What about the “A: barnyardgrass, herbicidal effect” value [28] of the same compound?
Its value is 5 (mortality of 90% or above (nearly complete death)).
